{"source": "paper PMC10251984", "about": "“Interactions of IDO and the Kynurenine Pathway with Cell Transduction Systems and Metabolism at the Inflammation–Cancer Interface” (Cancers, 2023)", "origin": "cited, not measured here", "key": {"experimental arthritis": {"system": "experimental arthritis", "design": "method as in PMID 33941676", "conditions": "IDO-dependent manner"}, "IDO1 [1]": {"system": "IDO1", "conditions": "COX-2 inhibition; IFNγ-induced"}, "Metastatic breast cancer": {"system": "Metastatic breast cancer", "conditions": "compared with taxane; Phase 2"}, "[2]": {"system": "Metastatic prostate cancer", "conditions": "combination with sipuleucel-T; Phase 2"}, "multiple myeloma": {"system": "multiple myeloma", "design": "method as in PMID 29089645, PMID 29487385"}, "PD-L1 [3]": {"system": "PD-L1", "design": "method as in PMID 35120895", "conditions": "via inhibition of the JAK–STAT–IRF1 pathway"}, "IDO [4]": {"system": "IDO", "design": "method as in PMID 35120895", "conditions": "via inhibition of the JAK–STAT–IRF1 pathway"}, "[5]": {"design": "method as in PMID 29040756, PMID 25330068"}, "IDO [6]": {"system": "IDO", "design": "method as in PMID 32024760", "conditions": "IDO activity enhanced"}, "IDO2 [7]": {"system": "IDO2", "design": "method as in PMID 36389710"}, "IDO1 [8]": {"system": "IDO1", "design": "method as in PMID 36389710"}, "[9]": {"system": "activated human CD4+T cells", "design": "method as in PMID 32641388", "conditions": "each compound separately"}, "T cell": {"system": "T cell", "design": "method as in PMID 31648326", "conditions": "MEK inhibitor"}, "AHR": {"system": "AHR", "design": "method as in PMID 34025677", "conditions": "AHR antagonist; induction by kynurenine in CD8+ T cells"}, "IDO2 [10]": {"system": "IDO2", "design": "method as in PMID 29247038", "conditions": "relative to the D-isomer"}, "IDO1 [11]": {"system": "IDO1", "design": "method as in PMID 30227893, PMID 35269712", "conditions": "IDO1 inhibitor; read-out: IC50 in direct enzyme assay"}, "PD-L1 [12]": {"system": "PD-L1", "conditions": "disrupts the interaction between Myc and HIF-1α"}, "[13]": {"system": "triple-negative breast cancer, colon and lung syngeneic tumor models", "design": "method as in PMID 35265193", "conditions": "combined with an anti-PD-L1 antibody"}, "T cell activation": {"system": "T cell activation", "design": "method as in PMID 35663990", "conditions": "glutaminase inhibitor; autoimmune hepatitis"}, "PD-L1 [14]": {"system": "PD-L1", "design": "method as in PMID 33220359"}, "Lewis lung carcinomas": {"system": "Lewis lung carcinomas", "design": "method as in PMID 32847988", "conditions": "combination with celecoxib"}, "IDO1 [15]": {"system": "IDO1", "design": "method as in PMID 28212885", "conditions": "COX-2 inhibitor"}}, "note": "Where two headings read alike, the source gives them in different places.", "data": [{"smiles": "Nc1ncn([C@H]2C[C@H](O)[C@@H](CO)O2)c(=O)n1", "note": "[decitabine]", "values": [{"measurement": "occurrence of relapse", "setting": "experimental arthritis", "value": "prevented the occurrence of relapse"}, {"measurement": "symptoms of arthritis", "setting": "experimental arthritis", "value": "reduced the symptoms of arthritis"}]}, {"smiles": "CS(=O)(=O)Nc1ccc([N+](=O)[O-])cc1Oc1ccccc1", "note": "[nimesulide]", "values": [{"measurement": "induction of IDO1", "setting": "IDO1 [1]", "value": "prevented induction of IDO1"}]}, {"smiles": "Cn1cc(C[C@@H](N)C(=O)O)c2ccccc21", "note": "[Indoximod, 1-methyl-D-tryptophan]", "values": [{"measurement": "trial outcome", "setting": "Metastatic breast cancer", "value": "[226] No improvement compared with taxane"}, {"measurement": "trial outcome", "setting": "[2]", "value": "[224] Combination with sipuleucel-T yielded radiological and clinical improvement"}]}, {"smiles": "O=C(CCCCCCNC(=O)c1cnc(N(c2ccccc2)c2ccccc2Cl)nc1)NO", "note": "[ACY241]", "values": [{"measurement": "efficacy against multiple myeloma", "setting": "multiple myeloma", "value": "effective"}]}, {"smiles": "O=c1c(O)c(-c2cc(O)c(O)c(O)c2)oc2cc(O)cc(O)c12", "note": "[myricetin]", "values": [{"measurement": "induction of PD-L1 by IFNγ", "setting": "PD-L1 [3]", "value": "prevent the induction"}, {"measurement": "induction of IDO by IFNγ", "setting": "IDO [4]", "value": "prevent the induction"}]}, {"smiles": "O=Cc1c2[nH]c3ccccc3c2cc2[nH]c3ccccc3c12", "note": "[FICZ, 6-Formylindolo-[3,2-b]-carbazole]", "values": [{"measurement": "metabolism / removal", "setting": "[5]", "value": "rapidly removed"}]}, {"smiles": "CC(=O)NCCc1c[nH]c2ccc(O)cc12", "note": "[N-acetyl-5-hydroxy-tryptamine]", "values": [{"measurement": "mode of action on IDO activity", "setting": "IDO [6]", "value": "positive allosteric modulator"}]}, {"smiles": "CCCCCCCC1=Nc2ccccc2C(=O)C1O", "note": "(stereo not shown) [PQS, 2-heptyl-3-hydroxy-4-quinolone]", "values": [{"measurement": "expression of IDO2", "setting": "IDO2 [7]", "value": "inhibits"}, {"measurement": "expression of IDO1", "setting": "IDO1 [8]", "value": "inhibits"}]}, {"smiles": "CN(C)C(=N)N=C(N)N", "note": "[metformin]", "values": [{"measurement": "IFNγ production", "setting": "[9]", "value": "inhibit IFNγ production"}]}, {"smiles": "CC(=O)Nc1cccc(-n2c(=O)n(C3CC3)c(=O)c3c(Nc4ccc(I)cc4F)n(C)c(=O)c(C)c32)c1", "note": "[Trametinib]", "values": [{"measurement": "T cell viability and proliferation", "setting": "T cell", "value": "promote T cell viability and proliferation"}]}, {"smiles": "Cc1ccccc1N=Nc1ccc(NC(=O)c2ccnn2C)c(C)c1", "note": "[CH223191]", "values": [{"measurement": "induction of PD-1", "setting": "AHR", "value": "blocked the induction of PD-1"}]}, {"smiles": "Cn1cc(C[C@H](N)C(=O)O)c2ccccc21", "note": "(single isomer, unassigned; isomer 1) [L-isomer, 1-methyl-tryptophan]", "values": [{"measurement": "inhibiting IDO2", "setting": "IDO2 [10]", "value": "much more active"}]}, {"smiles": "NS(=O)(=O)NCCNc1nonc1C(=NO)Nc1ccc(F)c(Br)c1", "note": "[Epacadostat]", "values": [{"measurement": "trial outcome", "setting": "melanoma; combined with the PD-1 antagonist pembrolizumab", "value": "no significant benefit"}, {"measurement": "clinical efficacy", "setting": "melanoma; randomized trial combined with pembrolizumab in patients with melanoma", "value": "clinically ineffective"}, {"measurement": "IC50", "setting": "IDO1 [11]", "value": "[…]"}]}, {"smiles": "C=C1C(=O)O[C@H]2C[C@@H](C)[C@@H]3[C@@H](OC(C)=O)C[C@H](O)[C@@]3(C)[C@@H](OC(C)=O)[C@H]12", "note": "[Britannin]", "values": [{"measurement": "expression of PD-L1", "setting": "PD-L1 [12]", "value": "reducing the expression of PD-L1"}]}, {"smiles": "CCCNS(=O)(=O)Nc1ncnc(OCCOc2ncc(Br)cn2)c1-c1ccc(Br)cc1", "note": "[macitentan]", "values": [{"measurement": "anti-tumor efficacy", "setting": "[13]", "value": "improved anti-tumor efficacy"}]}, {"smiles": "[N-]=[N+]=CC(=O)CC[C@H](N)C(=O)O", "note": "[DON, 6-diazo-5-oxo-L-norleucine]", "values": [{"measurement": "T cell activation", "setting": "T cell activation", "value": "inhibited T cell activation"}]}, {"smiles": "O=CC[C@@H](O)[C@H](O)[C@H](O)CO", "note": "[2-deoxyglucose]", "values": [{"measurement": "IFNγ production", "setting": "[9]", "value": "inhibit IFNγ production"}]}, {"smiles": "COc1ccc(CCc2cc(OC)c(OC)c(OC)c2)cc1O", "note": "[erianin]", "values": [{"measurement": "PD-L1 expression", "setting": "PD-L1 [14]", "value": "inhibited PD-L1 expression"}]}, {"smiles": "Nc1ncnc2c1ncn2[C@@H]1O[C@@H]2COP(=O)(O)O[C@H]3[C@@H](O)[C@H](n4cnc5c(N)ncnc54)O[C@@H]3COP(=O)(O)O[C@H]2[C@H]1O", "note": "[CDA, cyclic di-adenyl monophosphate]", "values": [{"measurement": "survival", "setting": "Lewis lung carcinomas", "value": "enhanced survival"}, {"measurement": "tumor growth", "setting": "Lewis lung carcinomas", "value": "controlled tumor growth"}]}, {"smiles": "Cc1ccc(-c2cc(C(F)(F)F)nn2-c2ccc(S(N)(=O)=O)cc2)cc1", "note": "[celecoxib]", "values": [{"measurement": "induction of IDO1", "setting": "IDO1 [15]", "value": "prevented the induction of IDO1"}]}, {"smiles": "Clc1cc2c(cc1Cl)Oc1cc(Cl)c(Cl)cc1O2", "note": "[TCDD, 2,3,7,8-tetrachloro-dibenzo-dioxin]", "values": [{"measurement": "metabolism / removal", "setting": "[5]", "value": "poorly metabolized"}]}]}
